These results are taken from patent US8980311B2, “Liposome-mediated ligation” (University of Georgia Research Foundation, Inc., priority 2006, dated 2015).

The conditions of this series: phosphate buffer containing 6 M guanidinium-hydrochloride.

Where a SMILES comes first, the peptide text is derived from it. The star is where a group is joined. Propyl(2R-PamO,3-PamO) = CCCCCCCCCCCCCCCC(=O)OC[C@H](C*)OC(=O)CCCCCCCCCCCCCCC; Palmitoyl = CCCCCCCCCCCCCCCC(=O)*; SBn = c1ccc(CS*)cc1

As for `CCCCCCCCCCCCCCCC(=O)N[C@@H](CSC[C@@H](COC(=O)CCCCCCCCCCCCCCC)OC(=O)CCCCCCCCCCCCCCC)C(=O)N[C@@H](CO)C(=O)N[C@@H](CCCCN)C(=O)N[C@@H](CCCCN)C(=O)N[C@@H](CCCCN)C(=O)N[C@@H](CCCCN)C(=O)NCC(=O)SCc1ccccc1` [Compound 6] (Palmitoyl-C(Propyl(2R-PamO,3-PamO))SKKKKG-SBn), the solubility result is “poor solubility”.
